Results: PubChem BioAssay AID2060901 (Molecular Pharmacology Branch, DTP, NCI, 2025)

Tested on: 422866-222-R5-J1-PDC complex spheroids viability
Assay: Anticancer human tumor 422866-222-R5-J1-PDC patient-derived pancreatic adenocarcinoma cell line growth inhibition [RAS]
Details: for IC50: curve of first compound; for viability, T/C: stronger effect = lower value
In short: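 Tumour cells grown as complex spheroids with HUVEC endothelial cells and mesenchymal stem cells, treated with RAS pathway inhibitor combinations. Each agent spans half-log steps from near clinical Cmax, or 10 microM where Cmax is unknown.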
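Note: spheroids exposed to compounds for 7 days.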
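Throughout, for viability, T/C: 100% = DMSO vehicle control viability.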

IC50 (second compound 0.0316 µM): > 300 nM | IC50 (second compound 0.1 µM): 91.8 nM | IC50 (second compound 0.316 µM): 7.9 nM | IC50 (second compound 1 µM): 1.6 nM | IC50 (second compound 3.16 µM): < 0.949 nM | IC50 (second compound 10 µM): < 0.949 nM
Structure (SMILES): CC1(C)CCC(Nc2ncc(C(F)(F)F)c(-c3c[nH]c4c(P(C)(C)=O)c(C#N)ccc34)n2)CN1 (configuration not stated) + C#Cc1c(F)ccc2cc(O)cc(-c3ncc4c(N5CC6CCC(C5)N6)nc(OCC56CCCN5CC(F)C6)nc4c3F)c12
viability, T/C (second compound 0.0316 µM, first compound 0.000949 µM): 112% | viability, T/C (second compound 0.0316 µM, first compound 0.003 µM): 83.3% | viability, T/C (second compound 0.0316 µM, first compound 0.00949 µM): 80.6% | viability, T/C (second compound 0.0316 µM, first compound 0.03 µM): 55.6% | viability, T/C (second compound 0.0316 µM, first compound 0.0949 µM): 62% | viability, T/C (second compound 0.0316 µM, first compound 0.3 µM): 56.4% | viability, T/C (second compound 0.1 µM, first compound 0.000949 µM): 100% | viability, T/C (second compound 0.1 µM, first compound 0.003 µM): 68% | viability, T/C (second compound 0.1 µM, first compound 0.00949 µM): 73.8% | viability, T/C (second compound 0.1 µM, first compound 0.03 µM): 38.2% | viability, T/C (second compound 0.1 µM, first compound 0.0949 µM): 47.5% | viability, T/C (second compound 0.1 µM, first compound 0.3 µM): 55.6% | viability, T/C (second compound 0.316 µM, first compound 0.000949 µM): 64.2% | viability, T/C (second compound 0.316 µM, first compound 0.003 µM): 66.4% | viability, T/C (second compound 0.316 µM, first compound 0.00949 µM): 45.5% | viability, T/C (second compound 0.316 µM, first compound 0.03 µM): 45.1% | viability, T/C (second compound 0.316 µM, first compound 0.0949 µM): 52.6% | viability, T/C (second compound 0.316 µM, first compound 0.3 µM): 45.3% | viability, T/C (second compound 1 µM, first compound 0.000949 µM): 54.1% | viability, T/C (second compound 1 µM, first compound 0.003 µM): 44.1% | viability, T/C (second compound 1 µM, first compound 0.00949 µM): 40.3% | viability, T/C (second compound 1 µM, first compound 0.03 µM): 42.7% | viability, T/C (second compound 1 µM, first compound 0.0949 µM): 34.5% | viability, T/C (second compound 1 µM, first compound 0.3 µM): 34.6% | viability, T/C (second compound 3.16 µM, first compound 0.000949 µM): 27% | viability, T/C (second compound 3.16 µM, first compound 0.003 µM): 37.7% | viability, T/C (second compound 3.16 µM, first compound 0.00949 µM): 28.4% | viability, T/C (second compound 3.16 µM, first compound 0.03 µM): 28.8% | viability, T/C (second compound 3.16 µM, first compound 0.0949 µM): 29.1% | viability, T/C (second compound 3.16 µM, first compound 0.3 µM): 26.9% | viability, T/C (second compound 10 µM, first compound 0.000949 µM): 24.2% | viability, T/C (second compound 10 µM, first compound 0.003 µM): 25.1% | viability, T/C (second compound 10 µM, first compound 0.00949 µM): 24.1% | viability, T/C (second compound 10 µM, first compound 0.03 µM): 27.8% | viability, T/C (second compound 10 µM, first compound 0.0949 µM): 27.9% | viability, T/C (second compound 10 µM, first compound 0.3 µM): 31.2%
